In patent US20240342318A1, “CONJUGATES COMPRISING COVALENT BINDERS FOR TARGETING INTRACELLULAR PROTEINS” (RayzeBio, Inc., priority 2021, published 2024):
Where two headings read alike, the source gives them in different places.

Key:
EGFR (WT) = target: T1, EGFR (WT) (Homo sapiens, UniProt P00533); experiment: In vitro kinase binding assay (phage/DNA-tagged kinase, affinity beads, qPCR), wild-type EGFR
T1 construct: The EGFR constructs span amino acids R669 to V1011 of the EGFR protein; T7 phage display fusion (kinase-tagged T7 phage) or DNA tag for qPCR; made in house; host or cells: E. coli (BL21-derived) infected with T7 phage for most assays; remaining kinases in HEK-293
Protocol: (§1) For most assays, kinase-tagged T7 phage strains were prepared in an E. coli host derived from the BL21 strain. For the EGFR assays, wild-type EGFR, or mutant EGFR (T790M, L858R) were utilized. The EGFR constructs span amino acids R669 to V1011 of the EGFR protein. E. coli were grown to log-phase and infected with T7 phage and incubated with shaking at 32° C. until lysis. The lysates were centrifuged and filtered to remove cell debris. The remaining kinases were produced in HEK-293 cells and subsequently tagged with DNA for qPCR detection. Streptavidin-coated magnetic beads were treated with biotinylated small molecule ligands for 30 minutes at room temperature to generate affinity resins for kinase assays. The liganded beads were blocked with excess biotin and washed with blocking buffer (SeaBlock (Pierce), 1% BSA, 0.05% Tween 20, 1 mM DTT) to remove unbound ligand and to reduce non-specific binding. Binding reactions were assembled by combining kinases, liganded affinity beads, and test compounds in 1× binding buffer (20% SeaBlock, 0.17×PBS, 0.05% Tween 20, 6 mM DTT). Test compounds were prepared as 111× stocks in 100% DMSO. Kds were determined using an 11-point 3-fold compound dilution series with three DMSO control points. All compounds for Kd measurements are distributed by acoustic transfer (non-contact dispensing) in 100% DMSO. The compounds were then diluted directly into the assays such that the final concentration of DMSO was 0.9%. All reactions performed in polypropylene 384-well plate. Each was a final volume of 0.02 ml. The assay plates were incubated at room temperature with shaking for 1 hour and the affinity beads were washed with wash buffer (lx PBS, 0.05% Tween 20). The beads were then re-suspended in elution buffer (lx PBS, 0.05% Tween 20, 0.5 μM nonbiotinylated affinity ligand) and incubated at room temperature with shaking for 30 minutes. The kinase concentration in the eluates was measured by qPCR.

EGFR (L858R, T790M) = target: T2, EGFR (L858R, T790M) (Homo sapiens, UniProt P00533, L858R/T790M); experiment: In vitro kinase binding assay (phage/DNA-tagged kinase, affinity beads, qPCR), mutant EGFR; settings: for Binding Affinity ratio of WT/DM: ratio of Kd EGFR (WT) to Kd EGFR (L858R, T790M)
T2 construct: The EGFR constructs span amino acids R669 to V1011 of the EGFR protein; T7 phage display fusion (kinase-tagged T7 phage) or DNA tag for qPCR; made in house; host or cells: E. coli (BL21-derived) infected with T7 phage for most assays; remaining kinases in HEK-293
Protocol: as §1

T2 sequence (P00533 669-1011 T790M/L858R): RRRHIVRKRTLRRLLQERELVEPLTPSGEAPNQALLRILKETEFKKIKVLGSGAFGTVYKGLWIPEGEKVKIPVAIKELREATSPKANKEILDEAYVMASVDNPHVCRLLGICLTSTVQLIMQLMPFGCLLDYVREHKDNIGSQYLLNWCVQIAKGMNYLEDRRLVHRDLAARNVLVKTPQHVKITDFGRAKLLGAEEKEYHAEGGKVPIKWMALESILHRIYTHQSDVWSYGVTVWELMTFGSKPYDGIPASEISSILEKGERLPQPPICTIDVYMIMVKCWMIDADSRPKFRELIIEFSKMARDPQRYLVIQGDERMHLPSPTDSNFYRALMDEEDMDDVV
T1 sequence (P00533 669-1011): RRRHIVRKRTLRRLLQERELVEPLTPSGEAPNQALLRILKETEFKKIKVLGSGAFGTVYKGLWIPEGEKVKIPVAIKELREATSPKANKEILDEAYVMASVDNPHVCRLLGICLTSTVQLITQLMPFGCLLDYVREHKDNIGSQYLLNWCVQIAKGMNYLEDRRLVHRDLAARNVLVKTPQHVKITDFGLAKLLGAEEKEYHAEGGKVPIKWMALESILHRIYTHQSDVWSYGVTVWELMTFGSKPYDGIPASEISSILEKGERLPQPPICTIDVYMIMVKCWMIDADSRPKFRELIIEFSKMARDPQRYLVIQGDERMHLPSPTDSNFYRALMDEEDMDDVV

| Kd (EGFR (WT); wild-type EGFR construct R669 to V1011, 11-point 3-fold dilution series, 1 hour at room temperature, read-out: EGFR (WT) Kd) | Kd (EGFR (L858R, T790M); mutant EGFR (T790M, L858R) construct R669 to V1011, 11-point 3-fold dilution series, 1 hour at room temperature, read-out: EGFR (L858R, T790M) Kd) | Structure (SMILES) | Binding Affinity ratio of WT/DM (EGFR (L858R, T790M)) | Kd (EGFR (WT)) | Kd (EGFR (L858R, T790M)) |
| --- | --- | --- | --- | --- | --- |
| 100 to 1000 nM | 1 to 25 nM | C=CC(=O)N1C[C@H](COc2nc(Nc3cnn(CCCCCNC(=O)CN4CCN(CC(=O)O)CCN(CC(=O)O)CCN(CC(=O)O)CC4)c3)nc3[nH]cc(Cl)c23)[C@@H](OC)C1 [Compound 007, 2,2′,2″-(10-(2-((5-(4-((4-(((3R,4R)-1-acryloyl-4-methoxypyrrolidin-3yl)methoxy)-5-chloro-7H-pyrrolo[2,3-d]pyrimidin-2-yl)amino)-1H-pyrazol-1-yl)pentyl)amino)-2-oxoethyl)-1,4,7,10-tetraazacyclododecane-1,4,7-triyl)triacetic acid] | C (100 < C ≤ 1000) | – | – |
| – | – | C=CC(=O)N1C[C@H](COc2nc(Nc3cnn(CCCCCNC(=O)CN4CCN5CCN6CCN(CC4)CC(=O)[O][Lu]([O]C(=O)C5)[O]C(=O)C6)c3)nc3[nH]cc(Cl)c23)[C@@H](OC)C1 [Compound 007-Lu, N-[5-[4-[[5-chloro-4-[[(3R,4R)-4-methoxy-1-prop-2-enoyl-pyrrolidin-3-yl]methoxy]-7H-pyrrolo [2,3-d]pyrimidin-2-yl]amino]pyrazol-1-yl]pentyl]-2-(3,16,19-trioxo-2,17,18-trioxa-5,8,11,14-tetraza-1λ3-lutetatricyclo[9.6.3.25,14]docosan-8-yl)acetamide] | C (100 < C ≤ 1000) | 100 to 1000 nM | < 1 nM |
